Results on eleven molecules are retold here after ChEMBL document CHEMBL3046877, “Synthesis and bioevaluation of novel arylnaphthalene lignans as anticancer agents” (Med Chem Res, 2013).

The source made the active and inactive calls. No cut-off for these calls is given here.

A word on the IC50: it is the concentration that inhibits the measured activity by half.

Assay [1] has as its system KB. Put plainly: Anticancer activity against Homo sapiens (human) KB cells assessed as decrease in cell growth after 3 days by MTT assay. As to conditions: 72 h. Format: functional, cell-based. In general terms: Tetrazolium dyes change colour on reduction, which living cells bring about.
In another assay the test system is HCT-116. Put plainly: Anticancer activity against Homo sapiens (human) HCT116 cells assessed as decrease in cell growth after 3 days by MTT assay. To be noted: HCT-116, 72 h. Format: functional, cell-based.
The test system of another assay is SW480. As to the kind of experiment: Anticancer activity against Homo sapiens (human) SW480 cells assessed as decrease in cell growth after 3 days by MTT assay. As to conditions: SW480, 72 h. Type of assay: functional, cell-based.
A further assay deals with A549. As to the kind of experiment: Anticancer activity against Homo sapiens (human) A549 cells assessed as decrease in cell growth after 3 days by MTT assay. Format: functional, cell-based. As to conditions: A549, 72 h.
Another assay relates to HEK293. As to the kind of experiment: Cytotoxicity against Homo sapiens (human) HEK293 cells assessed as decrease in cell growth after 3 days by MTT assay. Format: cell-based. To be noted: HEK293, 72 h.
Assay [2] deals with KB. Put plainly: Induction of apoptosis in Homo sapiens (human) KB cells assessed as increase in Bax expression at 5 to 15 uM after 72 hr by western blot analysis. Type of assay: functional, cell-based. A general note: A western blot detects proteins with antibodies after separation by electrophoresis.
Assay [3] relates to KB. As to the kind of experiment: Induction of apoptosis in Homo sapiens (human) KB cells assessed as decrease in Bcl-2 expression at 5 to 15 uM after 72 hr by western blot analysis. Format: functional, cell-based.
For assay [4], the system named is KB. Put plainly: Induction of apoptosis in Homo sapiens (human) KB cells assessed as plasma membrane blebbing at 5 to 10 uM after 72 hr by AO/EB double staining based fluorescence microscopic analysis. Format: functional, cell-based.

Turning to `COc1cc2c(O)c3c(c(-c4ccccc4)c2cc1OC)C(=O)OC3`, the 50% inhibitory concentration (IC50) in the assay on KB [1], with HCT-116, in the assay on SW480, in the assay with A549 and with HEK293 was over 100 µM each time.

Consider `COc1ccc(-c2c3c(c(O)c4cc(OC)c(OC)cc24)COC3=O)cc1OC`, for which the 50% inhibitory concentration (IC50) in the assay with KB [1], in the assay with HCT-116, with SW480, with A549 and in the assay on HEK293 was over 100 µM throughout.

Take `COc1cccc(-c2c3c(c(O)c4cc(OC)c(OC)cc24)COC3=O)c1`: the IC50 in the assay on KB [1] is over 100 µM; in the assay on HCT-116, 88.5 µM; in the assay on SW480, over 100 µM; with A549, over 100 µM; in the assay with HEK293, over 100 µM.

For the molecule `COc1cc2c(O)c3c(c(-c4cc(OC)c(OC)c(OC)c4)c2cc1OC)C(=O)OC3`, the concentration for half-maximal inhibition (IC50) with KB [1] is 23.2 µM; in the assay on HCT-116 it was over 100 µM; in the assay on SW480 it was over 100 µM; in the assay on A549, 97.2 µM; with HEK293 it was over 100 µM.

Consider `COc1ccc(-c2c3c(c(O)c4cc(OC)c(OC)cc24)COC3=O)cc1`, for which the IC50 is 20.6 µM with KB [1]; over 100 µM in the assay with HCT-116; over 100 µM with SW480; over 100 µM with A549; over 100 µM in the assay on HEK293.

Take `COc1cc([C@@H]2c3cc4c(cc3[C@@H](O[C@@H]3O[C@@H]5CO[C@@H](C)O[C@H]5[C@H](O)[C@H]3O)[C@H]3COC(=O)[C@H]23)OCO4)cc(OC)c1O` [ETOPOSIDE]: the half-maximal inhibitory concentration (IC50) in the assay on HEK293 was over 100 µM.

`COc1cc2c(O)c3c(c(-c4ccc(C)cc4)c2cc1OC)C(=O)OC3`: the IC50 in the assay with KB [1] was 15.1 µM; with HCT-116 it was over 100 µM; with SW480, over 100 µM; in the assay with A549, over 100 µM; in the assay on HEK293, over 100 µM.

For `COc1cc(OC)cc(-c2c3c(c(O)c4cc(OC)c(OC)cc24)COC3=O)c1`, the result in the assay with KB [2] and in the assay on KB [4] was Active. Also, the inhibition result in the assay on KB [3] was “Active”. Moreover, the 50% inhibitory concentration (IC50) with KB [1] was 5.1 µM; with HCT-116, 29.3 µM; with SW480, 5.6 µM; with A549 it was over 100 µM; with HEK293, over 100 µM.

In the case of `COc1cc2c(O)c3c(c(-c4ccccc4OC)c2cc1OC)C(=O)OC3`, the 50% inhibitory concentration (IC50) in the assay on KB [1] is over 100 µM; in the assay with HCT-116, over 100 µM; in the assay with SW480, 22.8 µM; with A549, over 100 µM; in the assay with HEK293, over 100 µM.

Regarding `COc1cc2c(O)c3c(c(-c4ccc5c(c4)OCO5)c2cc1OC)C(=O)OC3` [DIPHYLLIN], the figures for the concentration for half-maximal inhibition (IC50) in the assay on HCT-116 and with HEK293 were 48.5 µM and over 100 µM, respectively.

Consider `COc1ccc(OC)c(-c2c3c(c(O)c4cc(OC)c(OC)cc24)COC3=O)c1`, for which the half-inhibitory concentration (IC50) with KB [1], with HCT-116, in the assay with SW480, with A549 and with HEK293 was over 100 µM in each case.
